In ChEMBL document CHEMBL1133030, “Synthesis and in vitro evaluation of human FP-receptor selective prostaglandin analogues” (Bioorg Med Chem Lett, 2000):

Columns and labels:
[1] = target: T1, Prostaglandin F2-alpha receptor (Homo sapiens, UniProt P43088); test: Displacement of [3H]PGF2-alpha from human FP-receptor expressed in CHO-KI cells; assay type: cell-based
[2] = target: T2, Prostaglandin E2 receptor EP1 subtype (Homo sapiens, UniProt P34995); test: Functional activity in RAT-1cells, transiently-transfected with human Prostaglandin E receptor EP1 (% of control ligand, 17-phi-PGE2=100%)
T2 sequence (P34995 whole entry): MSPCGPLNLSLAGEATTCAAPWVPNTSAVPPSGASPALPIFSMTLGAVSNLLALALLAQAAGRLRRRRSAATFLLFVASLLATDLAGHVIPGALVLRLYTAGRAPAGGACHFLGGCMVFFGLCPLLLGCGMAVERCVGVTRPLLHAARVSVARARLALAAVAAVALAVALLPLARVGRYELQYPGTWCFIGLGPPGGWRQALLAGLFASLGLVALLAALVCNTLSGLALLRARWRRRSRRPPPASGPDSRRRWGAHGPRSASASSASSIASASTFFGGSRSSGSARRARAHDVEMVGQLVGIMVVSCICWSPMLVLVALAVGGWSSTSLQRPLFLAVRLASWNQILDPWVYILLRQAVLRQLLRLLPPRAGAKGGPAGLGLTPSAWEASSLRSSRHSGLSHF

[3] = target: T1, Prostaglandin F2-alpha receptor; test: Displacement of [3H]PGF-2 from human FP-receptor expressed in CHO-KI cells; assay type: cell-based
[4] = target: T3, Prostaglandin E2 receptor EP3 subtype (Homo sapiens, UniProt P43115); test: Displacement of [3H]PGE-2 from human Prostaglandin E receptor EP3 expressed in CHO-KI cells; assay type: cell-based
T3 sequence (P43115 whole entry): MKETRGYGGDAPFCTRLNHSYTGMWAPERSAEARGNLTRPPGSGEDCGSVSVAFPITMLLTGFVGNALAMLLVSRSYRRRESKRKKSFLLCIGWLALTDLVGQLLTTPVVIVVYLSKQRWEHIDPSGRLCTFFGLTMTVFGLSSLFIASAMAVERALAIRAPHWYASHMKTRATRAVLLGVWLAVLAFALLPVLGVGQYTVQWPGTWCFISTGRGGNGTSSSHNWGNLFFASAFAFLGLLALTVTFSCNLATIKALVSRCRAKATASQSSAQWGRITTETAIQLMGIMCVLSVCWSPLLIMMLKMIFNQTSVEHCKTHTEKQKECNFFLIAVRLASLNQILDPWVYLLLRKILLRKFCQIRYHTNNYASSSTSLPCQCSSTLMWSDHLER

[5] = target: T4, Thromboxane A2 receptor (Homo sapiens, UniProt P21731); test: Displacement of [3H]-U-46,619 from human TP-receptor expressed in CHO-KI cells; assay type: cell-based
T4 sequence (P21731 whole entry): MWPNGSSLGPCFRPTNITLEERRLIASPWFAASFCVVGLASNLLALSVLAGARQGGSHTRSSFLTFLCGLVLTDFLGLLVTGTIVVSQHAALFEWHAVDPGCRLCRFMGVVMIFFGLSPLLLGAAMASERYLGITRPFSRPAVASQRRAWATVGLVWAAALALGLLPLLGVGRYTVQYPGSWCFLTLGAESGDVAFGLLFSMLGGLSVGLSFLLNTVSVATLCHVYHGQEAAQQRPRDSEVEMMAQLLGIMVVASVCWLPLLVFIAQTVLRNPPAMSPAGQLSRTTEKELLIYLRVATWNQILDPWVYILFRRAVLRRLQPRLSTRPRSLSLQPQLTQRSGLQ

[6] = target: T3, Prostaglandin E2 receptor EP3 subtype; test: Functional activity in RAT-1cells, transiently-transfected with human Prostaglandin E receptor EP3 (% of control ligand, sulprostone<50%)
[7] = target: T4, Thromboxane A2 receptor; test: Functional activity in RAT-1cells, transiently-transfected with human TP-receptor (% of control ligand, [3H]-U-46,619=50%)
[8] = target: T2, Prostaglandin E2 receptor EP1 subtype; test: Displacement of [3H]PGE-2 from Prostaglandin E receptor EP1 expressed in CHO-KI cells; assay type: cell-based
[9] = target: T1, Prostaglandin F2-alpha receptor; test: Functional activity in RAT-1cells, transiently-transfected with human FP-receptor (% of control ligand, fluprostenol=90%)
[10] = target: T2, Prostaglandin E2 receptor EP1 subtype; test: Functional activity in RAT-1cells, transiently-transfected with human Prostaglandin E receptor EP1 (% of control ligand, 17-phi-PGE2=80%)
[11] = target: T4, Thromboxane A2 receptor; test: Functional activity in RAT-1cells, transiently-transfected with human TP-receptor (% of control ligand, [3H]-U-46,619=95%)
[12] = target: T1, Prostaglandin F2-alpha receptor; test: Functional activity in RAT-1cells, transiently-transfected with human FP-receptor (% of control ligand, fluprostenol=150%)
[13] = target: T3, Prostaglandin E2 receptor EP3 subtype; test: Functional activity in RAT-1cells, transiently-transfected with human Prostaglandin E receptor EP3 (% of control ligand, sulprostone=130%)
[14] = target: T3, Prostaglandin E2 receptor EP3 subtype; test: Functional activity in RAT-1cells, transiently-transfected with human Prostaglandin E receptor EP3(% of control ligand, sulprostone=75%)
[15] = target: T4, Thromboxane A2 receptor; test: Functional activity in RAT-1cells, transiently-transfected with human TP-receptor (% of control ligand, [3H]-U-46,619=100%)
[16] = target: T2, Prostaglandin E2 receptor EP1 subtype; test: Compound was evaluated for its ability to displace [3H]PGE-2 from human Prostaglandin E receptor EP1 isolated from CHO-KI cells (% of control ligand, 17-phi-PGE2=80%); assay type: cell-based
[17] = target: T1, Prostaglandin F2-alpha receptor; test: Functional activity in RAT-1cells, transiently-transfected with human FP-receptor (% of control ligand, fluprostenol=87%)
[18] = target: T2, Prostaglandin E2 receptor EP1 subtype; test: Functional activity in RAT-1cells, transiently-transfected with human Prostaglandin E receptor EP1 (% of control ligand, 17-phi-PGE2<50%)
[19] = target: T1, Prostaglandin F2-alpha receptor; test: Functional activity in RAT-1cells, transiently-transfected with human FP-receptor (% of control ligand, fluprostenol=100%)
[20] = target: T4, Thromboxane A2 receptor; test: Functional activity in RAT-1cells, transiently-transfected with human TP-receptor (% of control ligand, [3H]-U-46,619=90%)
[21] = target: T1, Prostaglandin F2-alpha receptor; test: Functional activity in RAT-1cells, transiently-transfected with human FP-receptor (% of control ligand, fluprostenol<20%)
[22] = target: T3, Prostaglandin E2 receptor EP3 subtype; test: Functional activity in RAT-1cells, transiently-transfected with human Prostaglandin E receptor EP3 (% of control ligand, sulprostone<20%)
[23] = target: T4, Thromboxane A2 receptor; test: Functional activity in RAT-1cells, transiently-transfected with human TP-receptor (% of control ligand, [3H]-U-46,619<20%)
[24] = target: T2, Prostaglandin E2 receptor EP1 subtype; test: Functional activity in RAT-1cells, transiently-transfected with human Prostaglandin E receptor EP1 (% of control ligand, 17-phi-PGE2<20%)
[25] = target: T3, Prostaglandin E2 receptor EP3 subtype; test: Functional activity in RAT-1cells, transiently-transfected with human Prostaglandin E receptor EP3 (% of control ligand, sulprostone=50%)
[26] = target: T3, Prostaglandin E2 receptor EP3 subtype; test: Compound was evaluated for its ability to displace [3H]-PGE-2 from human Prostaglandin E receptor EP3 isolated from CHO-KI cells; assay type: cell-based
[27] = target: T1, Prostaglandin F2-alpha receptor; test: Functional activity in RAT-1cells, transiently-transfected with human FP-receptor (% of control ligand, fluprostenol=50%)

T1 sequence (P43088 whole entry): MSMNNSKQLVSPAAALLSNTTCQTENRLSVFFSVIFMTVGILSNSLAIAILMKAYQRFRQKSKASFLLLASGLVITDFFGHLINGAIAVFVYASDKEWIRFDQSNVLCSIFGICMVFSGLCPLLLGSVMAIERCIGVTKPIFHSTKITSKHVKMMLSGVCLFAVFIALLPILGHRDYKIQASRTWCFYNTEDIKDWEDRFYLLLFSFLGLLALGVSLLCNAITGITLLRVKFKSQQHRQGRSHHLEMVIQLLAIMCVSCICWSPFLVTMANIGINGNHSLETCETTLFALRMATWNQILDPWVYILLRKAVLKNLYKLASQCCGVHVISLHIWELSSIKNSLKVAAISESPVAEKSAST

| Compound | IC50 [3] [µM] | IC50 [4] [µM] | IC50 [5] [µM] | IC50 [8] [µM] | further results |
| --- | --- | --- | --- | --- | --- |
| O=C(O)CCCCCC[C@@H]1[C@@H](CC[C@@H](O)CCc2cccc(C(F)(F)F)c2)[C@H](O)C[C@@H]1O | 0.0086 | > 10 | > 10 | > 10 | IC50 [1]: 0.0086 µM; EC50 [2]: 30 µM; EC50 [6]: > 20 µM; EC50 [7]: > 20 µM; EC50 [9]: 0.085 µM |
| CCc1cccc(CC[C@H](O)CC[C@@H]2[C@@H](CCCCCCC(=O)O)[C@@H](O)C[C@H]2O)c1 | 0.54 | > 10 | > 10 | > 10 | – |
| CCCCC(C)(C)[C@H](O)/C=C/[C@@H]1[C@@H](C/C=C\CCCC(=O)O)[C@@H](O)C[C@H]1O | – | – | – | – | EC50 [10]: 0.3 µM; IC50 [1]: 0.016 µM; EC50 [11]: 0.024 µM; EC50 [12]: 0.09 µM; EC50 [13]: 2 µM |
| O=C(O)CCCCCC[C@@H]1[C@@H](CC[C@@H](O)CCc2ccccc2F)[C@H](O)C[C@@H]1O | 0.076 | > 10 | > 10 | 3.1 | – |
| Cc1ccccc1CC[C@H](O)CC[C@@H]1[C@@H](CCCCCCC(=O)O)[C@@H](O)C[C@H]1O | 0.63 | > 10 | > 10 | 10 | – |
| O=C(O)CCC/C=C\C[C@@H]1[C@@H](/C=C/[C@@H](O)COc2cccc(Cl)c2)[C@H](O)C[C@@H]1O [CLOPROSTENOL] | – | – | – | – | EC50 [10]: 0.76 µM; EC50 [14]: 5 µM; EC50 [15]: 2.4 µM |
| COc1cccc(CC[C@H](O)CC[C@@H]2[C@@H](CCCCCCC(=O)O)[C@@H](O)C[C@H]2O)c1 | 1.62 | > 10 | > 10 | – | IC50 [16]: > 10 µM |
| O=C(O)CCCCCC[C@@H]1[C@@H](CC[C@@H](O)CCc2cccc(F)c2)[C@H](O)C[C@@H]1O | 0.042 | 3.7 | > 10 | 10 | – |
| O=C(O)CCC/C=C\C[C@@H]1[C@@H](/C=C/[C@@H](O)CCc2cccc(C(F)(F)F)c2)[C@H](O)C[C@@H]1O | – | – | – | – | IC50 [1]: 0.01 µM; EC50 [17]: 0.064 µM; EC50 [18]: > 20 µM; EC50 [6]: > 20 µM; EC50 [7]: 2.1 µM |
| COc1ccccc1CC[C@H](O)CC[C@@H]1[C@@H](CCCCCCC(=O)O)[C@@H](O)C[C@H]1O | 5.89 | – | – | – | – |
| O=C(O)CCCCCC[C@@H]1[C@@H](CC[C@@H](O)COc2cccc(Cl)c2)[C@H](O)C[C@@H]1O | – | – | – | – | IC50 [1]: 0.001 µM; EC50 [2]: 19 µM; EC50 [19]: 0.009 µM; EC50 [6]: > 20 µM; EC50 [20]: 8 µM |
| O=C(O)CCCCCC[C@@H]1[C@@H](CC[C@@H](O)CCc2ccc(C(F)(F)F)cc2)[C@H](O)C[C@@H]1O | 3.63 | – | – | – | – |
| Cc1ccc(CC[C@H](O)CC[C@@H]2[C@@H](CCCCCCC(=O)O)[C@@H](O)C[C@H]2O)cc1 | 4.4 | – | – | – | – |
| O=C(O)CCCCCC[C@@H]1[C@@H](CC[C@@H](O)CCc2ccc(F)cc2)[C@H](O)C[C@@H]1O | 0.21 | > 10 | > 10 | 3.45 | – |
| O=C(O)CCCCCC[C@@H]1[C@@H](CC[C@@H](O)CCc2ccccc2)[C@H](O)C[C@@H]1O | 0.082 | > 10 | > 10 | 1.1 | – |
| O=C(O)CCCCCC[C@@H]1[C@@H](CC[C@@H](O)CCc2ccccc2C(F)(F)F)[C@H](O)C[C@@H]1O | 2.14 | – | – | – | – |
| COc1ccc(CC[C@H](O)CC[C@@H]2[C@@H](CCCCCCC(=O)O)[C@@H](O)C[C@H]2O)cc1 | 0.29 | > 10 | > 10 | > 10 | – |
| CCCCC(C)(C)[C@H](O)CC[C@@H]1[C@@H](CCCCCCC(=O)O)[C@@H](O)C[C@H]1O | – | – | – | – | IC50 [1]: > 1 µM; EC50 [21]: > 20 µM; EC50 [22]: > 20 µM; EC50 [23]: > 20 µM; EC50 [24]: > 20 µM |
| CCCCC[C@H](O)/C=C/[C@@H]1[C@@H](C/C=C\CCCC(=O)O)[C@@H](O)C[C@H]1O [DINOPROST] | – | – | – | – | EC50 [10]: 0.6 µM; EC50 [11]: 1.4 µM; EC50 [25]: 2.3 µM |
| N#Cc1cccc(CC[C@H](O)CC[C@@H]2[C@@H](CCCCCCC(=O)O)[C@@H](O)C[C@H]2O)c1 | 0.21 | – | > 10 | > 10 | IC50 [26]: > 10 µM |
| CCCCC[C@H](O)CC[C@@H]1[C@@H](CCCCCCC(=O)O)[C@@H](O)C[C@H]1O | – | – | – | – | EC50 [27]: 5 µM; IC50 [1]: 0.522 µM; EC50 [18]: > 10 µM; EC50 [15]: 30 µM; EC50 [6]: > 20 µM |
